One experiment has as its system GPR35. Nature of the experiment: GPR35 western blots, spinal cord. The experiment is classed as in vivo, mice. Particulars: non-lumbar region of the spinal cord; TgSOD1-Cromolyn vs TgSOD1-Vehicle; p=0.167. How it is done: Western blots were performed as previously described (Mueller et al., 2018). Briefly, […] of mouse spinal cord protein was re-suspended in sample buffer, boiled at 95° C. for 5 minutes, and fractioned on 10-20% Tricine gels (Life Technologies), and the membrane was then blocked with 5% milk in tris-buffered saline with Tween 20 (TBST) before immunodetection with antibodies specific for the following: GPR35 (Novus Biologicals, Littleton, Colo.; NBP2-24640), and beta-actin (Cell Signaling Technology, Danvers, Mass.; 4967S). Primary antibody incubation overnight was followed by 4 washes (15 min, RT) in TBST before incubation with the secondary antibody for 1 h (HRP-conjugated goat anti-rabbit IgG Jackson ImmunoResearch Laboratories, West Grove, Pa.; and HRP-conjugated goat anti-mouse Bio-Rad Laboratories Hercules, Calif.). After 4 washes in TBST (15 min, RT) proteins were visualized using the ECL detection system (NEN, Boston, Mass.). GPR35 integrated density values (IDV) were normalized to beta-actin.
(§1) 149 male and female age- and litter-matched transgenic (Tg) SOD1^G93A and wild-type (Wt) SOD1^G93A mice were used with the following breakdown: Females (19 WtSOD1-Vehicle, 17 WtSOD1-Cromolyn, 19 TgSOD1-Vehicle, and 17 TgSOD1-Cromolyn) and Males (18 WtSOD1-Vehicle, 21 WtSOD1-Cromolyn, 21 TgSOD1-Vehicle, 17 TgSOD1-Cromolyn).
(In general: A western blot detects proteins with antibodies after separation by electrophoresis.)

The next experiment has as its system SOD1^G93A mouse model. As to the kind of experiment: Neurological scoring (ALS TDI criteria). The class given is in vivo, mice. Conditions: 6.3 mg/kg i.p. Here is the method: Beginning at P50, weight and neurological score (using the ALS TDI criteria) (Hatzipetros, T., et al. (2015). “A Quick Phenotypic Neurological Scoring System for Evaluating Disease Progression in the SOD1-G93A Mouse Model of ALS.” J Vis Exp(104); Leitner M., et. al. (2009). “Working with ALS mice: Guidelines for preclinical testing & colony management.” The Jackson Laboratory) were recorded for each mouse every 5 days until death or euthanasia. ALS TDI criteria are as follows: • Score of 0: Full extension of hind legs away from lateral midline when mouse is suspended by its tail, and mouse can hold this for two seconds, suspended two to three times. • Score of 1: Collapse or partial collapse of leg extension towards lateral midline (weakness) or trembling of hind legs during tail suspension. • Score of 2: Toes curl under at least twice during walking of 12 inches, or any part of foot is dragging along cage bottom/table. • Score of 3: Rigid paralysis or minimal joint movement, foot not being used for generating forward motion. • Score of 4: Mouse cannot right itself within 15 seconds after being placed on either side. *Mice were euthanized upon obtaining a score of 4.
as §1

For experiment [1], the system named is Iba1-positive cell area in lumbar spinal cord. As to the kind of experiment: Iba1 immunohistochemical analysis (microgliosis). The experiment is classed as in vivo, mice. Conditions: TgSOD1-Cromolyn vs TgSOD1-Vehicle. How it is done:
Frozen spinal cord sections were fixed in 4% PFA/PBS for 72 hours and dehydrated with 30% sucrose in PBS. Sections were washed three times (5 minutes each) with PBS and incubated with 3% H2O2 in PBS for 15 minutes to quench endogenous peroxidases. Sections were subsequently washed three times with PBS and blocked using 5% (v/v) normal goat serum (Vector Laboratories), 0.3% Triton X-100 in PBS. Primary antibody against Iba1 (rabbit polyclonal, 1:400, Wako, #019-19741) was diluted in a buffer containing 2.5% (v/v) normal goat serum, 0.3% Triton X-100 and incubated overnight at 4° C. On the following day, samples were washed three times (10 minutes each) with PBS. The primary antibody was detected using a biotinylated secondary antibody (1:200) and VECTASTAIN Elite ABC HRP kit (Vector Laboratories), and developed with DAB (Vector Laboratories), following the provider's instructions. Sections were dehydrated in a series of graded ethanol, cleared in xylene, and cover-slipped with Cytoseal-XYL xylene-based mounting medium (Thermo Fisher Scientific). Sections were imaged using a light microscope (TE360 Eclipse; Nikon, Japan) at 10× magnification. The Iba1-positive cell area (area occupied by Iba1-positive cells divided by the total area) was quantified for each spinal cord section using ImageJ software (Voxel counter plugin, NIH, USA). Two to three sections were analyzed per mouse. […]

Experiment [2] addresses G-protein-coupled receptor 35 (GPR35) (Homo sapiens, UniProt Q9HC97). Particulars: cited from earlier work.

G-protein-coupled receptor 35 (GPR35), sequence (Q9HC97 whole entry, species assumed): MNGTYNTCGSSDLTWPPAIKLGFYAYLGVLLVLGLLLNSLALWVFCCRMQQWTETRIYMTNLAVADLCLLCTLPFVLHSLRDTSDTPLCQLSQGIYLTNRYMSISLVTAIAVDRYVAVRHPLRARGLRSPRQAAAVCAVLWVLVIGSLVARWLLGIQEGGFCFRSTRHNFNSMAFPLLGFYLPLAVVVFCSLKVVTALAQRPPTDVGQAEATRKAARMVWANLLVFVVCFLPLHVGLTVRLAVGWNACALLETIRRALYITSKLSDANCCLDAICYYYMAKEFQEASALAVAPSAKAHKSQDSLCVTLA

As to `O=C(O)c1cc(=O)c2c(OCC(O)COc3cccc4oc(C(=O)O)cc(=O)c34)cccc2o1` [cromolyn, cromolyn sodium], the “GPR35 levels (western blot, normalized to beta-actin)” value in the experiment with GPR35 is on record as “trend towards an increase”. In addition, the neurological score entry is “significantly delayed disease onset and progression” in the experiment on SOD1^G93A mouse model (TgSOD1-Cromolyn vs TgSOD1-Vehicle, all mice, P90, P100, P110, P130, P140); “significant increase in neurological score in the female TgSOD1-Vehicle treated group compared to TgSOD1-Cromolyn group” with SOD1^G93A mouse model (female mice, P90, P100, P120, P130, P140); “significant increase in neurological score in male TgSOD1-Vehicle treated group compared to TgSOD1-Cromolyn group” with SOD1^G93A mouse model (male mice, P90, P100, P110). For the same molecule, the “percentage of Iba1-positive cell area in the lumbar spinal cord” value in experiment [1] is listed as “no significant change”. Besides, the “agonism of GPR35” value in experiment [2] is “potent agonist”.

Source of the values: patent US20210059977A1, “COMBINATION THERAPIES FOR THE TREATMENT OF AMYOTROPHIC LATERAL SCLEROSIS AND RELATED DISORDERS” (The General Hospital Corporation, priority 2018, published 2021).
